The values below come from EP0623340B1, “Use of hydroxy or dihydroxynaphthalene in the preparation of a cosmetic or dermatological composition for skin whitening” (L'OREAL, priority 1993, dated 1994).

In this assay the test system is tyrosinase de champignons. In words: in vitro tyrosinase activity inhibition test (dopachrome formation followed at 475 nm). The class given is biochemical. As to conditions: lowering of maximal dopachrome formed (OD 475 nm at plateau) vs no inhibitor; inhibitor at 50 % molaire relative to tyrosine; pH 6,5; 25°C. The source says: Certains des composés de formule générale (I) ont été étudiés comparativement à l'hydroquinone à quantité molaire équivalente dans le test d'inhibition in vitro de l'activité de la tyrosinase.
Selon ce test on suit par spectrométrie visible à 475 nm la quantité de dopachrome formée au cours de la chaîne de réactions de transformation de la tyrosine en mélanines. Ces réactions sont catalysées in vitro par la tyrosinase de champignons, en présence d'un co-substrat réducteur (par exemple la L-dopa en petite quantité) pour initier la réaction d'hydroxylation de la L-tyrosine en L-dopa, laquelle est ensuite oxydée catalytiquement en dopaquinone puis en dopachrome, produit intermédiaire avant les réactions d'oxydation non enzymatiques aboutissant à la formation des mélanines.
On mesure donc la concentration en dopachrome formé au cours du temps en présence et en absence de l'inhibiteur.
Les concentrations en inhibiteurs sont fixées à 50 % molaire par rapport à la concentration en tyrosine dans le milieu réactionnel.
On exprime l'effet d'inhibition par l'abaissement de la quantité maximale de dopachrome formée (valeur de densité optique à 475 nm lue au plateau de la courbe) par rapport à la quantité obtenue en l'absence d'inhibiteur.
• A - Tampon phosphate 0,1 M pH = 6,5 (Tween 20 à 1 %) • B - Solution mère de L-tyrosine à 2.10^-3 M dans A • C - Solution mère de L-dopa à 10^-4 M dans A • D - Solution mère de tyrosinase de champignons à 2.400 unités/ml dans A • E - Solution mère de l'inhibiteur à 10^-2 M dans A (les solutions C et D sont à préparer le jour même)
• cuve de référence : 3 ml de A • cuve d'essai : 1 ml de B 0,1 ml de C 1,85ml de A + E • homogénéiser et équilibrer à 25°C • ajouter 0,05 ml de D • mélanger rapidement et observer la cinétique par la mesure de l'absorbance à 475 nm en fonction du temps.
Turning to `Oc1ccc2cc(O)ccc2c1` [[drawing] r4], the “% change in maximal dopachrome formed vs no inhibitor” value (shortened to “% change … vs no inhibitor”) is given as -91%.

Consider `Oc1ccc(O)cc1` [hydroquinone, reference compound], for which the “% change … vs no inhibitor” value is reported as -33%.

For the compound `Oc1ccc2c(O)cccc2c1` [[drawing] r3], the “% change … vs no inhibitor” value is given as -47%.
